Assay results: US11590134B2, “Aminopyrimidine amide autophagy inhibitors and methods of use thereof” (Deciphera Pharmaceuticals, LLC, priority 2019, dated 2023)
pIC50: −log10 of the molar value.

Key:
[1] = target: T1, ULK1 kinase (Homo sapiens, UniProt O75385); assay: Biochemical assay for ULK1.2 (coupled pyruvate kinase/lactate dehydrogenase assay); conditions: 19 nM ULK1 (residues 1-314), myelin basic protein substrate, 1 mM ATP
T1 construct: purchased Eurofins 14-959
T1 sequence (O75385 with tags, fused parts or gaps): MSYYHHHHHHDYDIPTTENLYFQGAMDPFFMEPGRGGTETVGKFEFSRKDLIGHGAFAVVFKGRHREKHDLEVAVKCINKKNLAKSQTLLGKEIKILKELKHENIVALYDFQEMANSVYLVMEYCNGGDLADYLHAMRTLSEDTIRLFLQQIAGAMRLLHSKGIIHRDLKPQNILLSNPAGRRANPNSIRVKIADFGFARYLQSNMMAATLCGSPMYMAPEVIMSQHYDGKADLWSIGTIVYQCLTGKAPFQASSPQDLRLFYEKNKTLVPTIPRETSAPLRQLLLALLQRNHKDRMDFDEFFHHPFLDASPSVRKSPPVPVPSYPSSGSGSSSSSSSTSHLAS
Protocol: (§1) Activity of ULK1 kinase was determined spectroscopically using a coupled pyruvate kinase/lactate dehydrogenase assay that continuously monitors the ATP hydrolysis-dependent oxidation of NADH (e.g., Schindler et al. Science (2000) 289: 1938-1942). Assays were conducted in 384-well plates (100 uL final volume) using 19 nM ULK1 (Eurofins CAT #14-959), 0.25 mg/mL myelin basic protein, 1.5 units pyruvate kinase, 2.1 units lactate dehydrogenase, 1 mM phosphoenol pyruvate, 0.28 mM NADH and 1 mM ATP in assay buffer (100 mM Tris, pH 7.5, 15 mM MgCl2, 0.5 mM DTT, 0.1% octyl-glucoside, 0.002% (w/v) BSA, and 0.002% Triton X-100). Inhibition of ULK1 was measured by adding serial diluted test compound (final assay concentration of 1% DMSO). A decrease in absorption at 340 nm was monitored continuously for 6 hours at 30° C. on a multi-mode microplate reader (BioTek). The reaction rate was calculated using the 2-3 h time frame. The reaction rate at each concentration of compound was converted to percent inhibition using controls (i.e. reaction with no test compound and reaction with a known inhibitor) and IC50 values were calculated by fitting a four-parameter sigmoidal curve to the data using Prism (GraphPad software).

[2] = target: T2, ULK2 kinase (Homo sapiens, UniProt Q8IYT8); assay: Biochemical assay for ULK2 (coupled pyruvate kinase/lactate dehydrogenase assay); conditions: 9.7 nM ULK2 (residues 1-306), myelin basic protein substrate, 1 mM ATP; read-out: ULK2.2
T2 construct: purchased Eurofins 14-772
Protocol: as §1, with “of ULK2” for “of ULK1”, “using 9.7” for “using 19”, “nM ULK2” for “nM ULK1”, “CAT #14-772),” for “CAT #14-959),”

[3] = target: T3, LRRK2 kinase (Homo sapiens, UniProt Q5S007); assay: Biochemical assay for LRRK2 (coupled pyruvate kinase/lactate dehydrogenase assay); conditions: 26.4 nM LRRK2 (residues 970-2528), peptide substrate, 1 mM ATP
T3 construct: (residues 970-2528; ID NO; 4); purchased Thermo Fisher
Protocol: Activity of LRRK2 kinase was determined spectroscopically using a coupled pyruvate kinase/lactate dehydrogenase assay that continuously monitors the ATP hydrolysis-dependent oxidation of NADH (e.g., Schindler et al. Science (2000) 289: 1938-1942). Assays were conducted in 384-well plates (100 uL final volume) using 26.4 nM LRRK2 (Thermo Fisher), 0.1 mM peptide substrate (RLGRDKYKTLRQIRQ (SEQ ID NO: 6)), 1.5 units pyruvate kinase, 2.1 units lactate dehydrogenase, 1 mM phosphoenol pyruvate, 0.28 mM NADH and 1 mM ATP in assay buffer (100 mM Tris, pH 7.5, 15 mM MgCl2, 0.5 mM DTT, 0.004% (w/v) BSA, and 0.004% Triton X-100). Inhibition of LRRK2 was measured by adding serial diluted test compound (final assay concentration of 1% DMSO). A decrease in absorption at 340 nm was monitored continuously for 6 hours at 30° C. on a multi-mode microplate reader (BioTek). The reaction rate was calculated using the 2-3 h time frame. The reaction rate at each concentration of compound was converted to percent inhibition using controls (i.e. reaction with no test compound and reaction with a known inhibitor) and IC50 values were calculated using software routines in Prism (GraphPad software).

T2 sequence (Q8IYT8 with tags, fused parts or gaps): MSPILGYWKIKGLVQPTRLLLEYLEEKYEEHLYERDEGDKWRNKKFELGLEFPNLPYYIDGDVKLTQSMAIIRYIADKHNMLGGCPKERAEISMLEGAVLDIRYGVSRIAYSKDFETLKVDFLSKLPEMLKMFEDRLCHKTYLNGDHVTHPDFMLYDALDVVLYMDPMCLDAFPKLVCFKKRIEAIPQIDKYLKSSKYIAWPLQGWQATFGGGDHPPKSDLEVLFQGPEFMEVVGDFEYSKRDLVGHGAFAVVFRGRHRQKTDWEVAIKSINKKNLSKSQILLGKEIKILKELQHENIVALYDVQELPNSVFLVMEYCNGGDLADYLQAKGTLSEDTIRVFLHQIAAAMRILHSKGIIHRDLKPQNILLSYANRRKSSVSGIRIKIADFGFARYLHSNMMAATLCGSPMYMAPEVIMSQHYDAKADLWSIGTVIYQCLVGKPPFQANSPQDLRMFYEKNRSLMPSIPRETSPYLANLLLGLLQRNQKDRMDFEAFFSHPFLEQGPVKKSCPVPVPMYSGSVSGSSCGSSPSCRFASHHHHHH
T3 sequence (Q5S007 with tags, fused parts or gaps): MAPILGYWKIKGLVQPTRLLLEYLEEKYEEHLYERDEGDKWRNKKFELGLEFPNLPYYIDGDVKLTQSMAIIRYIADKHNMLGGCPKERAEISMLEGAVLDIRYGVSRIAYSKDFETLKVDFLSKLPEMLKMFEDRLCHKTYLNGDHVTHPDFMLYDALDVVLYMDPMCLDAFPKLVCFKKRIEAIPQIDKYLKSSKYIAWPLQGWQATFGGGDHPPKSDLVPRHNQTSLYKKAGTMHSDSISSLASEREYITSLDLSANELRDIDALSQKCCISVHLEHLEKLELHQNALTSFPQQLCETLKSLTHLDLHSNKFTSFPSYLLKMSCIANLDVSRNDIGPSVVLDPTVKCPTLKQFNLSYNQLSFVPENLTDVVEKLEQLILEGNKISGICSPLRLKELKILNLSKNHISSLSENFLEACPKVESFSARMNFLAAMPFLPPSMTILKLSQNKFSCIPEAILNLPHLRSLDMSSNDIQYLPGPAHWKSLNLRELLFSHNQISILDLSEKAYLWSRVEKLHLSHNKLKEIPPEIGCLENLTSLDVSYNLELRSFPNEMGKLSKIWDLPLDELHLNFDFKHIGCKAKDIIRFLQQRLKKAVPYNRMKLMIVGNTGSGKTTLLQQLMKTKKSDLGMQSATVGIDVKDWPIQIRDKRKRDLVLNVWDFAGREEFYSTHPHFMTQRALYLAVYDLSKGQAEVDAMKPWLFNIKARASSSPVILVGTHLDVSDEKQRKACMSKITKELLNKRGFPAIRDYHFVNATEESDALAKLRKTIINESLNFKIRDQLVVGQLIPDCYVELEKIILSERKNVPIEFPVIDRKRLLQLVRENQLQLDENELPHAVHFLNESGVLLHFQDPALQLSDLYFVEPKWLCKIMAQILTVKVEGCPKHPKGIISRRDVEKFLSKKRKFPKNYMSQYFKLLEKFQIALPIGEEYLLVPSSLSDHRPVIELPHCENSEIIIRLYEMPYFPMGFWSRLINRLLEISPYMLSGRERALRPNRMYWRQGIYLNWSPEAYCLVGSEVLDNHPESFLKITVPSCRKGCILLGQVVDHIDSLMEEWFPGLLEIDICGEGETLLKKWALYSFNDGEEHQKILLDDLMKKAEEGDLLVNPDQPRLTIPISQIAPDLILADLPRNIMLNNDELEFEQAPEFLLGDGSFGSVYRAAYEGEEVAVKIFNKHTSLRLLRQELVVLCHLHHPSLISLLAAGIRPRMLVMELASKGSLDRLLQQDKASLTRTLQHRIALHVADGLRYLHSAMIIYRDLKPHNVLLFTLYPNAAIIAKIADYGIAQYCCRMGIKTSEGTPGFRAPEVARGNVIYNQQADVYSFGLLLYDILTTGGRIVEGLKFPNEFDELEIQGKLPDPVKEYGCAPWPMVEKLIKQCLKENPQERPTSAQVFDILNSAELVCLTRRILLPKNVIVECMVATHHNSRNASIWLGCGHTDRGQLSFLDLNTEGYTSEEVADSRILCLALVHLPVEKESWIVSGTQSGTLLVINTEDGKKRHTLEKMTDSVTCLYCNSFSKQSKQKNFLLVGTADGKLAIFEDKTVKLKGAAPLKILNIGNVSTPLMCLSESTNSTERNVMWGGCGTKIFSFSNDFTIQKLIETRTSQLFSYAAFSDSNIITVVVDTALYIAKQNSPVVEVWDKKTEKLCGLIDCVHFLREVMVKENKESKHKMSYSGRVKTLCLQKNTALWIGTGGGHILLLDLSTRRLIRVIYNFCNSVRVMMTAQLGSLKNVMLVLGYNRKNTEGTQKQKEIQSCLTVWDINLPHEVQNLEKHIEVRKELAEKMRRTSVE

Row | Compound | pIC50 [1] | pIC50 [2] | pIC50 [3]
1 | Cc1cc(N2CCN(C)CC2)ncc1Nc1ncc(C(F)(F)F)c(NCCCNC(=O)C2CCC2)n1 [Example 5] | 6.30 to 7.00 | 6.30 to 7.00 | 4.70 to 6.22
2 | Cc1cc(C2CCN(C)CC2)ccc1Nc1ncc(C(F)(F)F)c(NCCCN(C)C(=O)C2CCC2)n1 [Example 18] | 7.60 to 9.00 | – | 7.00 to 9.00
3 | Cc1cc(C2CCN(C)CC2)ccc1Nc1ncc(Cl)c(NCCCN(C)C(=O)C2CCC2)n1 [Example 17] | 6.30 to 7.00 | – | 7.00 to 9.00
4 | COc1cc(N2CCN(C)CC2)ccc1Nc1ncc(C2CC2)c(NCCCNC(=O)C2CCC2)n1 [Example 11] | 4.70 to 6.30 | – | 4.70 to 6.22
5 | Cc1cc(C2CCNCC2)ccc1Nc1ncc(Cl)c(NCCCN(C)C(=O)C2CCC2)n1 [Example 15] | 6.30 to 7.00 | – | 7.00 to 9.00
6 | Cc1cc(N2CCOCC2)ncc1Nc1ncc(C(F)(F)F)c(NCCCNC(=O)C2CCC2)n1 [Example 6] | 4.70 to 6.30 | 4.70 to 6.30 | 6.22 to 6.52
7 | Cc1nn(C2CCNCC2)cc1Nc1ncc(C2CC2)c(NCCCNC(=O)C2CCC2)n1 [Example 24] | 6.30 to 7.00 | – | 4.70 to 6.22

Continued, values first:

Row | pIC50 [1] | pIC50 [2] | pIC50 [3] | Compound
8 | 6.30 to 7.00 | – | 4.70 to 6.22 | Cc1nn(C2CCN(C)CC2)cc1Nc1ncc(C2CC2)c(NCCCNC(=O)C2CCC2)n1 [Example 25]
9 | 6.30 to 7.00 | – | – | Cc1cc(N2CCN(C)CC2)ncc1Nc1cc(NCCCNC(=O)C2CCC2)c(C(F)(F)F)cn1 [Example 31, N-(3-((2-((4-methyl-6-(4-methylpiperazin-1-yl)pyridin-3-yl)amino)-5-(trifluoromethyl)pyridin-4-yl)amino)propyl)cyclobutanecarboxamide]
10 | 7.60 to 9.00 | 7.00 to 7.60 | 7.00 to 9.00 | Cc1nn(C2CCN(C)CC2)cc1Nc1ncc(Cl)c(NCCCN(C)C(=O)C2CCC2)n1 [Example 27]
11 | 7.00 to 7.60 | – | 6.52 to 7.00 | [2H]C([2H])([2H])N1CCC(n2cc(Nc3ncc(Br)c(NCCCNC(=O)C4CCC4)n3)c(C)n2)CC1 [Example 29]
